± gives the standard deviation of the averaged measurements.
Tested on: SW982
Experiment: relative viability vs DMSO control (72 h) (fraction); higher = more viable cells
Outline: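 Plates held 72 h at 37 °C and 5% CO2 contained sarcoma cell lines seeded in 384-well format to reach 80–90% confluence, plus 2.5 µl of serially diluted compound added after 24 h. Source plate concentrations ran from 10 mM to 0.0002 mM, with 0.1% DMSO as vehicle and a 5 µM positive control. Percent growth from ATPLite readings, averaged over up to triplicate wells, gave relative viability. Values were rescaled with 1 as full and 0 as none.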

Row | SMILES | relative viability (0.00017 µM) | relative viability (0.00051 µM) | relative viability (0.00152 µM) | relative viability (0.00457 µM) | relative viability (0.01372 µM) | relative viability (0.04115 µM) | relative viability (0.1235 µM) | relative viability (0.3704 µM) | relative viability (1.111 µM) | relative viability (3.333 µM) | relative viability (10 µM)
1 | CCCS(=O)(=O)Nc1ccc(F)c(C(=O)c2c[nH]c3ncc(-c4ccc(Cl)cc4)cc23)c1F [Vemurafenib] | 1.04 ± 0.063 | 1.08 ± 0.048 | 1.05 ± 0.027 | 1.03 ± 0.029 | 1.06 ± 0.053 | 1.02 ± 0.045 | 0.9867 ± 0.0019 | 0.988 ± 0.039 | 1.01 ± 0.029 | 0.794 ± 0.035 | 0.532 ± 0.02
2 | C=CC(=O)N1CCC([C@@H]2CCNc3c(C(N)=O)c(-c4ccc(Oc5ccccc5)cc4)nn32)CC1 [Zanubrutinib] | 0.96 ± 0.026 | 0.968 ± 0.017 | 0.944 ± 0.03 | 0.958 ± 0.013 | 0.949 ± 0.027 | 0.96 ± 0.017 | 0.909 ± 0.019 | 0.893 ± 0.052 | 0.827 ± 0.025 | 0.771 ± 0.04 | 0.731 ± 0.045
3 | CC(=O)Nc1cccc(-n2c(=O)n(C3CC3)c(=O)c3c(Nc4ccc(I)cc4F)n(C)c(=O)c(C)c32)c1 [Trametinib] | 0.993 ± 0.045 | 0.988 ± 0.044 | 0.981 ± 0.028 | 0.938 ± 0.051 | 0.893 ± 0.095 | 0.866 ± 0.07 | 0.847 ± 0.084 | 0.848 ± 0.038 | 0.858 ± 0.049 | 0.838 ± 0.049 | 0.799 ± 0.027
4 | C=CC(=O)N1CCC[C@@H](n2nc(-c3ccc(Oc4ccccc4)cc3)c3c(N)ncnc32)C1 [Ibrutinib] | 1.02 ± 0.016 | 1.06 ± 0.039 | 1.07 ± 0.011 | 1.05 ± 0.035 | 1.03 ± 0.033 | 1.05 ± 0.02 | 1.05 ± 0.035 | 1.06 ± 0.051 | 1.08 ± 0.036 | 1.04 ± 0.027 | 0.845 ± 0.044
5 | Cc1ccc(F)c(NC(=O)Nc2ccc(-c3cccc4[nH]nc(N)c34)cc2)c1 [Linifanib] | 1.03 ± 0.027 | 1.08 ± 0.024 | 1.05 ± 0.035 | 1.07 ± 0.032 | 1.03 ± 0.021 | 1.06 ± 0.043 | 1.06 ± 0.019 | 1.08 ± 0.04 | 1.1 ± 0.036 | 1.12 ± 0.015 | 1.12 ± 0.04
6 | CC[C@H](Nc1ncnc2[nH]cnc12)c1nc2cccc(F)c2c(=O)n1-c1ccccc1 [Idelalisib] | 1.06 ± 0.033 | 1.06 ± 0.039 | 1.05 ± 0.039 | 1.07 ± 0.027 | 1.07 ± 0.055 | 1.08 ± 0.033 | 1.07 ± 0.04 | 1.067 ± 0.0099 | 1 ± 0.029 | 0.948 ± 0.074 | 0.778 ± 0.011
7 | CC(C)(C)c1cc(NC(=O)Nc2ccc(-c3cn4c(n3)sc3cc(OCCN5CCOCC5)ccc34)cc2)no1 [Quizartinib] | 1.06 ± 0.028 | 1.05 ± 0.017 | 1.05 ± 0.03 | 1.05 ± 0.029 | 1.06 ± 0.017 | 1.06 ± 0.022 | 1.06 ± 0.027 | 1.04 ± 0.031 | 1.05 ± 0.017 | 1.05 ± 0.039 | 1.05 ± 0.039
8 | CNC(=O)c1cc(Oc2ccc(NC(=O)Nc3ccc(Cl)c(C(F)(F)F)c3)c(F)c2)ccn1 [Regorafenib] | 1.03 ± 0.017 | 1.09 ± 0.057 | 1.08 ± 0.043 | 1.1 ± 0.052 | 1.06 ± 0.032 | 1.08 ± 0.057 | 1.09 ± 0.044 | 1.09 ± 0.056 | 0.997 ± 0.037 | 0.8827 ± 0.0051 | 0.795 ± 0.0056
9 | CNC(=O)c1ccc(-c2cnc3ncc(Cc4ccc5ncccc5c4)n3n2)cc1F [Capmatinib] | 1.04 ± 0.023 | 1.07 ± 0.045 | 1.07 ± 0.076 | 1.042 ± 0.0035 | 1.06 ± 0.067 | 1.03 ± 0.025 | 1.04 ± 0.028 | 1.06 ± 0.045 | 1.07 ± 0.06 | 1.06 ± 0.057 | 1.02 ± 0.024
